Data set [1] concerns TNF-α secretion from RAW264.7 cells. The data set can be described thus: Inhibition of TNF-α secretion from RAW264.7 cells stimulated with CpG-ODN (ELISA). Format: cell-based, murine. The conditions noted are these: for activity vis-à-vis P13 (inhibition of TNF-α after stimulation of RAW264.7 cells with CpG): SAR, compared with P13; for Inhibition of TNF-α secretion (percent inhibition): 4 hours (Table 3). On the procedure: (§1) RAW264.7 (murine monocyte/macrophage cells (American Type Culture Collection) were cultured at 37° C. in a 5% CO2 humidified incubator and grown in DMEM (Invitrogen Life Technologies) supplemented with 10% (v/v) heat-inactivated FCS, 1.5 mM L-glutamine, 100 U/ml penicillin, and 100 μg/ml streptomycin.
(§2) RAW264.7 cells were plated at 1.5×10^5 cells/well −3×10^5 cells/well in 48-well plates. After 24 hours, the cells were incubated with peptides at various concentrations at room temperature in triplicate either before, simultaneous with, or after activation with various PAMPs for 18 hours. Cell-free supernatants were analyzed for cytokines by ELISA, in quadruplicate. RAW264.7 cells were stimulated with either CpG-ODN (1 μg/ml or 1.25 μg/ml), LPS (about 1 ng/ml), Poly (I:C) (about 10 μg/ml), flagellin (about 5 ng/ml), or zymosan (about 10 μg/ml). Dose response curves were done with each PAMP to determine optimal stimulation concentration. For CpG-ODN stimulation, cells were incubated for 4 hours at 37° C., supernatants collected, and TNF-α measured by ELISA. Any cytokine involved in inflammatory disease mediated toll receptor signaling can be measured using similar assays.
The effect of several peptides on TNF-α secretion from RAW264.7 cells in response to stimulation by CpG-ODN was studied. Each peptide was initially tested at 3 concentrations, 37 μM, 22.2 μM, and 11.1 μM. […] The peptides were then tested at 11.1 μM, 7.4 μM, and 3.7 μM (Table 3). […] Cell viability was examined for each peptide at the concentrations tested for TNF-α inhibition.
(§3) Inhibition of TNF-α secretion by various T-peptides was examined. RAW264.7 cells were plated at 3×10^5 cells/well in 48-well plates. After 24 h the cells were incubated with peptide at various concentrations at room temperature in triplicate for 15 minutes and then stimulated with 1.25 ug/ml CpG-ODN or 1 ng/ml LPS. Cells were then incubated for 4 hours at 37° C., supernatants collected, and TNF-α measured by ELISA. Percent inhibition was calculated by comparing TNF-α secretion from cells incubated with peptide to control cells with no peptide treatment. The inhibition by peptides T3, T11, T21, T36, T37, T51 and T52 were compared to inhibition by an analogue of P13 having a sequence of nine arginine residues (SEQ ID NO: 379) at the C-terminus (P13-R^9; SEQ ID NO: 378). (Table 4).
On the technique in general: ELISA stands for enzyme-linked immunosorbent assay.

The test system is the same in data set [2]. The data set can be described thus: Inhibition of TNF-α secretion from RAW264.7 cells stimulated with LPS (ELISA). It is filed as cell-based, murine. The conditions noted are these: LPS Stimulation, 1 ng/ml LPS. On the procedure: as §1, §2, §3
Data set [3] concerns mouse middle ear. Kind of data set: Effects caused by peptide without added bacteria on mouse middle ear. It is filed as in vivo. The conditions noted are these: 10 μM, no bacteria, 3 days. How it is done: Induction of otitis media: BALB/c (Bagg albino) mice, about 8-12 weeks of age, are anesthetized with a subcutaneous injection of xylazine & ketamine (about 0.1 mg/30 gm body weight) and their ears examined under the operating microscope to assure they are free of infection or perforation. One group of animals is injected with PBS (Phospho-buffered saline) in one ear and with about 10 μM of a peptide of Table 1 in the opposite ear, to determine the effect of peptide without added bacteria. A second group of animals receive about 5.0 μl of PBS plus heat-inactivated S. pneumoniae (about 10^9 CFU/ml) in one ear and about 5.0 μl of peptide (about 10 μM) plus heat-inactivated S. pneumoniae (about 10^9 CFU/ml) in the opposite ear. Injections are done through the tympanic membrane. Animals are killed about 3 days after bacterial injection and tissue is histologically processed to assess middle ear disease. Inflammation is quantified by measuring 1) area of fluid present in the middle ear; 2) number of cells in middle ear fluid; and 3) thickness of the tympanic membrane (TM) taken at a point away from the injection site. Data are obtained from mice (n=18) injected with PBS alone for each of the histological parameters measured, to serve as a control group.
To determine the effect of peptide without added bacteria, animals are injected in one ear with PBS alone, and the other ear with about 10 μM peptide. Paired t-tests are done comparing the effect of PBS alone with the effect of peptide for each of the three histological parameters: 1) area of fluid present in the middle ear; 2) number of cells in middle ear fluid; and 3) thickness of the tympanic membrane. […]
Five mice were injected in one ear with PBS and in the opposite ear with 10 μM peptide P13. Three days later the animals were killed, and the middle ears embedded, sectioned, stained and evaluated for fluid area, infiltrating cell number, and thickness of the tympanic membrane. […]

For data set [4], the system named is tympanic membrane of BALB/c mice. Kind of data set: Assay for crossing the tympanic membrane by FITC-labeled peptide. It is filed as in vivo, mouse. Particulars: 10 μg/30 μl dropped onto ear with AOM, 10 minutes; fluorescent microscopy of middle ear fluid. On the procedure:
Three BALB/c mice at 8-12 weeks of age were anesthetized with ketamine (100 mg/kg) and xylazine (20 mg/kg) prior to administration of bacteria. A ventral midline incision was made in the neck, and the bulla exposed after blunt dissection. The middle ear was inoculated through the bony wall with approximately 3.5 μl of a bacterial suspension (heat inactivated S. pneumoniae 10^10 CFU/ml) with a thin needle. Both the right and left ears received bacteria by bulla injection.
After 24 hours, animals received an otoscopic exam using an operating microscope. Mice were anesthetized as described above, and the tympanic membrane was inspected for the presence or absence of the following three criteria for acute otitis media (AOM): 1) middle ear effusion behind the tympanic membrane; 2) change in color of the tympanic membrane from clear to red or white (indicating inflammation and/or purulence in the middle ear); 3) change in position of the tympanic membrane from neutral to bulging or retracted.
Four ears met the criteria for AOM. FITC labeled peptide P13-R^9 (SEQ ID NO: 378) (10 μg/30 μl) was dropped onto the middle ear. The peptide was allowed to absorb for 10 minutes. After 10 minutes, the external ear canal was flushed twice, and blotted to get rid of any remaining peptide. […]

The mark [5] stands for this setting: 7.1 μM peptide, CpG stimulation, 1.25 ug/ml CpG-ODN.
Setting [6] is: 11.1 μM peptide, CpG stimulation, 1.25 ug/ml CpG-ODN.
Setting [7] is: 22 μM peptide, CpG stimulation, 1.25 ug/ml CpG-ODN.
Setting [8] is: 11.1 μM peptide, 1 ug/ml CpG-ODN, 4 hours (Table 2).
Where [9] appears, read: 22.2 μM peptide, 1 ug/ml CpG-ODN, 4 hours.

Ends that are not written are not given here.

As for AIIKVYVYACIRRRRRRRRR [T52-R^9], the entries for the “Percent Inhibition of TNF-α secretion” value in data set [1] (setting [5]), in data set [1] (setting [6]) and in data set [1] (setting [7]) were 97.8%, 99.2% and 100%, respectively. The “activity vis-à-vis P13 (inhibition of TNF-α after stimulation of RAW264.7 cells with CpG)” value in data set [1] is recorded as “superior activity”.

Take AIVKLTVYACIRRRRRRRRR [T51-R^9]: the “Percent Inhibition of TNF-α secretion” value came to 94% in data set [1] (setting [5]), 98% in data set [1] (setting [6]) and 99.7% in data set [1] (setting [7]). The “activity vis-à-vis P13 (inhibition of TNF-α after stimulation of RAW264.7 cells with CpG)” value in data set [1] was “superior activity”.

Regarding AIVKLTVYDCIRRRRRRRRR [T3-R^9], the “Percent Inhibition of TNF-α secretion” value in data set [2] (7.4 uM peptide) was found to be 33%; in data set [2] (11.1 uM peptide), 65%; in data set [2] (22.2 uM peptide) it was 77%; in data set [1] (setting [5]), 85%; in data set [1] (setting [6]), 92%; in data set [1] (setting [7]) it was 99%. The “activity vis-à-vis P13 (inhibition of TNF-α after stimulation of RAW264.7 cells with CpG)” value in data set [1] is recorded as “superior activity”.

As for DIIKLTVYDCIRRRRRRRRR [T36-R^9], the “Percent Inhibition of TNF-α secretion” value is reported as 50% in data set [1] (setting [5]), 70% in data set [1] (setting [6]) and 82% in data set [1] (setting [7]). Moreover, in data set [1], the “activity vis-à-vis P13 (inhibition of TNF-α after stimulation of RAW264.7 cells with CpG)” value is “superior activity”.

For the substance DIVKLTVYACIRRRRRRRRR [T11-R^9], the figures for the “Percent Inhibition of TNF-α secretion” value in data set [2] (7.4 uM peptide), in data set [2] (11.1 uM peptide) and in data set [2] (22.2 uM peptide) were 68%, 81% and 91%, respectively. The “activity vis-à-vis P13 (inhibition of TNF-α after stimulation of RAW264.7 cells with CpG)” value in data set [1] was “superior activity”.

With DIVKLTVYDCI [Peptide P13, DIVKLTVYDCI], in data set [3], the “difference between PBS-injected ear and P13-injected ear in cell number” value is on record as “no differences”; the “difference between PBS-injected ear and P13-injected ear in fluid area” value is recorded as “no differences”; the “difference between PBS-injected ear and P13-injected ear in tympanic membrane thickness” value was “no differences”.

As for DIVKLYVYDCIRRRRRRRRR [T21-R^9], the “Percent Inhibition of TNF-α secretion” value in data set [1] (setting [5]) is reported as 69%; in data set [1] (setting [6]), 90%; in data set [1] (setting [7]) it was 98%. Further, in data set [1], the “activity vis-à-vis P13 (inhibition of TNF-α after stimulation of RAW264.7 cells with CpG)” value was “superior activity”.

With DIVKVTVYDCIRRRRRRRRR [T37-R^9], the “Percent Inhibition of TNF-α secretion” value in data set [1] (setting [5]) was found to be 46%; in data set [1] (setting [6]) it was 87%; in data set [1] (setting [7]) it was 93%. In addition, the “activity vis-à-vis P13 (inhibition of TNF-α after stimulation of RAW264.7 cells with CpG)” value in data set [1] was “superior activity”.

With “FITC-labeled P13-R^9: FITC (Fluorescein isothiocyanate) labeled peptide P13-R^9 (SEQ ID NO: 378) (DIVKLTVYDCIRRRRRRRRR; also: FITC label)”, the “crossing the tympanic membrane” value in data set [4] was “crosses the tympanic membrane and associates with cells in middle ear fluid”.

In the case of “FTILLEEYFMYRGLLGLRIRRRRRRRRR [Peptide 103 (S19)-R^9]”, the “Inhibition of TNF-α secretion (percent inhibition)” value (from here on “Inhibition … (percent inhibition)”) in data set [1] (7 μM peptide, 1 ug/ml CpG-ODN) is given as 87%; in data set [1] (11 μM peptide, 1 ug/ml CpG-ODN) it was 93%. In addition, the “Percent Inhibition of TNF-α secretion” value in data set [1] (setting [8]) was determined as 93%; in data set [1] (setting [9]), 99%.

“ILLEEYFMYRGLLGLRIRRRRRRRRR [Peptide 105 (S21)-R^9]”: the “Inhibition … (percent inhibition)” value was 52% in data set [1] (7 μM peptide, 1 ug/ml CpG-ODN) and 62% in data set [1] (11 μM peptide, 1 ug/ml CpG-ODN). Besides, the “Percent Inhibition of TNF-α secretion” value in data set [1] (setting [8]) was determined as 62%; in data set [1] (setting [9]) it was 91%.

For the substance “LLEEYFMYGLLGLRIRRRRRRRRR [Peptide 106 (S22)-R^9]”, the “Inhibition … (percent inhibition)” value in data set [1] (7 μM peptide, 1 ug/ml CpG-ODN) turned out to be 53%; in data set [1] (11 μM peptide, 1 ug/ml CpG-ODN), 70%. Besides, the “Percent Inhibition of TNF-α secretion” value in data set [1] (setting [8]) is 70%; in data set [1] (setting [9]), 92%.

As for “TILLEEYFMYRGLLGLRIRRRRRRRRR [Peptide 104 (S20)-R^9]”, the “Inhibition … (percent inhibition)” value in data set [1] (7 μM peptide, 1 ug/ml CpG-ODN) turned out to be 60%; in data set [1] (11 μM peptide, 1 ug/ml CpG-ODN), 74%. Further, the “Percent Inhibition of TNF-α secretion” value is given as 74% in data set [1] (setting [8]) and 93% in data set [1] (setting [9]).

The values above are taken from patent publication US9150617B2, “Immunoregulatory peptides and methods of use” (13 Therapeutics, Inc., priority 2009, dated 2015).
